Where two headings read alike, the source gives them in different places.
Columns and labels:
[1] = system: HCT 116 (colon carcinoma); conditions: read-out: IC50, the concentration that causes 50% growth inhibition, HCT116, 72 h incubation, MTT
Procedure: The described assay was used to test the effects of test compounds on the proliferation of various human tumor cell lines, whereby cytostatic and cytotoxic effects on cells can be differentiated. The experiments were carried out on human cell lines, which were derived from 3 tumor types: MCF-7 (breast carcinoma), HCT 116 (colon carcinoma), H 460 (lung carcinoma).
Cell lines were cultured as monolayers and maintained in Dulbecco's modified Eagle medium (DMEM), supplemented with 10% fetal bovine serum (FBS), 2 mM L-glutamine, 100 U/ml penicillin and 100 μg/ml streptomycin in a humidified atmosphere with 5% CO2 at 37° C.
The cell lines were inoculated onto a series of standard 96-well microtiter plates on day 0, at 1×10^4 to 3×10^4 cells/ml, depending on the doubling times of the specific cell line. Test compounds were added next day to the cell lines in five consecutive 10-fold dilutions (10^−8 to 10^−4 M) and incubated for a further 72 hours. Working dilutions were freshly prepared on the day of testing. The solvent (DMSO) was also tested for eventual inhibitory activity by adjusting its concentration to be the same as in working concentrations.
For each cell line one of the plates was left in the dark, while the other was irradiated in a Luzchem reactor (6 lamps 350 nm, 5 min; or 6 lamps 420 nm, 15 min, visible light, 15 min) four hours after the addition of the test compounds and subsequently 24 h and 48 h after the first irradiation, as described above. After 72 hours of incubation the cell growth rate was evaluated by performing the MTT assay (Mossman, Methods Immunol, 1983, 65, 55-63), which detects dehydrogenase activity in viable cells. The MTT Cell Proliferation Assay is a colorimetric assay system, which measures the reduction of a tetrazolium component (MTT) into an insoluble formazan produced by mitochondria of viable cells. For this purpose the substance treated medium was discarded and MTT was added to each well in concentration of 20 μg/40 μl. After four hours of incubation the precipitates were dissolved in 160 μl of dimethylsulphoxide (DMSO). The absorbance (OD, optical density) was measured on a microplate reader at 570 nm. The absorbance is directly proportional to the cell viability. The percentage of growth (PG) of the cell lines was calculated according to one of the following two equations (according to the National Cancer Institute protocols, www.dtp.nci.nih.gov):
If (mean ODtest-mean ODtzero)≥0 then • PG=100×(mean ODtest-mean ODtzero)/(mean ODetrl-meanODtzero).
If (mean ODtest-mean ODtzero)<0 then: • PG=100×(mean ODtest-mean ODtzero)/ODtzero. where:
Mean ODtzero=the average of optical density measurements before exposure of cells to the test compound.
Mean ODtest=the average of optical density measurements after the desired period of time.
Mean ODetrl=the average of optical density measurements after the desired period of time with no exposure of cells to the test compound.
Each test point was performed in quadruplicate in three individual experiments. The results were expressed as IC50, a concentration necessary for 50% of proliferation inhibition. Each result is a mean value from three separate experiments. The IC50 measures the growth inhibitory power of the test agent and represents the concentration that causes 50% growth inhibition. […] Therefore, a “real” value for any of the response parameters is obtained only if at least one of the tested drug concentrations falls above, and likewise at least one falls below the respective reference value. If however, for a given cell line or test agent all of the tested concentrations produce PGs exceeding the respective reference level of effect (e.g. PG value of 50%), then the highest tested concentration is assigned as the default value. In the screening data report the default value is preceded by a “>” sign.

[2] = system: H 460 (lung carcinoma); assay: Antiproliferative MTT assay, H 460; format: cell-based, human; conditions: 72 h incubation, read-out: IC50, the concentration that causes 50% growth inhibition
Text: (§1) The absorbance is directly proportional to the cell viability.

[3] = system: MCF-7 (breast carcinoma); assay: Antiproliferative MTT assay, MCF-7; format: cell-based, human; conditions: 72 h incubation, read-out: IC50, the concentration that causes 50% growth inhibition
Text: as §1

Substance	IC50 ([1]; Not irrad.) [µM]	IC50 ([1]; irradiated 350 nm 3 × 5 min) [µM]	IC50 ([1]; irradiated 420 nm 3 × 15 min) [µM]	IC50 ([1]; irradiated VIS 3 × 15 min) [µM]	IC50 ([2]; Not irrad.) [µM]	IC50 ([2]; irradiated 350 nm 3 × 5 min) [µM]	IC50 ([2]; irradiated 420 nm 3 × 15 min) [µM]	IC50 ([2]; irradiated VIS 3 × 15 min) [µM]	IC50 ([3]; Not irrad.) [µM]	IC50 ([3]; irradiated 350 nm 3 × 5 min) [µM]	IC50 ([3]; irradiated 420 nm 3 × 15 min) [µM]	IC50 ([3]; irradiated VIS 3 × 15 min) [µM]
4,4-difluoro-1,3,5,7-tetramethyl-8-[3-(N,N-dimethylammoniummethyl)-4-hydroxyphenyl]-4-bora-3a,4a-diaza-s-indacene hydrochloride [Example 4]	16 ± 1	11 ± 2	2 ± 0.4	2 ± 0.1	13 ± 0.2	5 ± 3	1 ± 0.1	0.9 ± 0.2	13 ± 0.1	10 ± 0.6	2 ± 0.2	1.6 ± 0.01
4,4-difluoro-1,5,7-trimethyl-343-(N,N-dimethylammoniummethyl)-4-hydroxyphenyl)-8-phenyl-4-bora-3a,4a-diaza-s-indacene hydrochloride [Example 7]	27			2	20 ± 5			2 ± 0.7	22 ± 12			2 ± 0.7
4,4-difluoro-8-[3-(N,N-dimethylammoniummethyl)-4-hydroxyphenyl]-4-bora-3a,4a-diaza-s-indacene hydrochloride [Example 2]	> 100	> 100	37 ± 7	89 ± 6	> 100	> 100	30 ± 18	43 ± 6	≥ 100	≥ 100	25 ± 6	32 ± 25

From patent US11103519B2, “Quinone-methide precursors with bodipy chromophore, method of preparation, biological activity and application in fluorescent labelling” (Rudjer Boskovic Institute, priority 2016, dated 2021)
